# Patent publication US6815189B1, “Gene from acremonium chrysogenum encoding a protein with cephalosporin C acetylhydrolase activity and methods of use of such gene” (Antibiotics, S.A.U., priority 1999, dated 2004)
# Where two headings read alike, the source gives them in different places.
# Legend:
# [1] = target: T1, CPC-AH B (Hapsidospora chrysogena, UniProt A0A086SV17); assay: In-vitro deacetylation by enzymatic extracts from E. coli JM109(DE3)/pT7B2.2 (processed CPC-AH B); type: biochemical, Acremonium chrysogenum; settings: substrate 20 mM, 60 minutes at 37° C.
# [2] = tested on: extracellular CPC-AH; settings: cited from earlier work
# [3] = target: T1, CPC-AH B; assay: Effect of metals and inhibitors on CPC-AH B activity (HPLC test of DAC formation from CPC); type: biochemical, Acremonium chrysogenum
# [4] = final concentration of the ions 1 mM
# [5] = metals 1 mM, pre-incubated 15 minutes at 4° C., NONE = 100
# T1 sequence (A0A086SV17 107-383): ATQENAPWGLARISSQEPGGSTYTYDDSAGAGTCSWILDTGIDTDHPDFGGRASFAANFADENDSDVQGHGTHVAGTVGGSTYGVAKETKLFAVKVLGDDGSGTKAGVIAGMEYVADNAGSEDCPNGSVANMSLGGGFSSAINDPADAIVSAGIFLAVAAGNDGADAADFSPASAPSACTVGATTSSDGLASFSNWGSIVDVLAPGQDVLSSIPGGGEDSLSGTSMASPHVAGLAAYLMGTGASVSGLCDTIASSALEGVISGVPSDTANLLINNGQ
molecule,measurement,setting,value
"CC(=O)OCC1=C(C(=O)O)N2C(=O)[C@@H](N)[C@H]2SC1 [7-ACA, 7-aminocephalosporanic acid]",Deacetylation of substrate,[1],detected appearance of the corresponding deacetylated derivatives
"CC(=O)OCC1=C(C(=O)O)N2C(=O)[C@@H](NC(=O)CCC[C@@H](N)C(=O)O)[C@H]2SC1 [CPC, cephalosporin C]",Deacetylation of substrate,[1],detected appearance of the corresponding deacetylated derivatives
same,Km,[2],20 mM
O=C(O)CN(CCN(CC(=O)O)CC(=O)O)CC(=O)O [EDTA],CPC-AH activity (%),"[3]; inhibitor 0.1 mM, NONE = 100",91%
same,CPC-AH activity (%),"[3]; inhibitor 1 mM, NONE = 100",87%
same,CPC-AH activity (%),"[3]; inhibitor 10 mM, NONE = 100",86%
O=S(=O)([O-])[O-].[Fe+2] [FeSO4],Effect of metal ion on CPC-AH B activity,[3]; [4],inhibit activity to a greater or lesser extent
same,CPC-AH activity (%),[3]; [5],49%
O=C([O-])[O-].[K+].[K+] [K2CO3],CPC-AH activity (%),[3]; [5],77%
O=S(=O)([O-])[O-].[Mg+2] [MgSO4],Effect of metal ion on CPC-AH B activity,[3]; [4],stimulating effect
same,CPC-AH activity (%),[3]; [5],141%
O=S(=O)([O-])[O-].[Mn+2] [MnSO4],Effect of metal ion on CPC-AH B activity,[3]; [4],stimulating effect
same,CPC-AH activity (%),[3]; [5],140%
[Cl-].[Na+] [NaCl],CPC-AH activity (%),[3],94%
"O=S(=O)(F)Cc1ccccc1 [PMSF, phenylmethylsulphonyl fluoride]",Effect of inhibitor on CPC-AH B activity,[3],strong inhibitory effect
O=S(=O)([O-])[O-].[Zn+2] [ZnSO4],Effect of metal ion on CPC-AH B activity,[3]; [4],inhibit activity to a greater or lesser extent
same,CPC-AH activity (%),[3]; [5],60%
AgNO3,CPC-AH activity (%),[3],60%
same,Effect of metal ion on CPC-AH B activity,[3],inhibit activity to a greater or lesser extent
CaCl2,CPC-AH activity (%),[3],147%
same,Effect of metal ion on CPC-AH B activity,[3],stimulating effect
CoSO4,CPC-AH activity (%),[3],80%
CuSO4,CPC-AH activity (%),[3],64%
same,Effect of metal ion on CPC-AH B activity,[3],inhibit activity to a greater or lesser extent
